Columns and labels:
IKKε = molecular target: T1, IKKε (Homo sapiens, UniProt Q14164); experiment: IKKε kinase test (384-well flashplate); type: biochemical; conditions: 1 nM IKKε, 10 μM ATP, 30° C., 120 min; read-out: IC50 [IKKepsilon]
T1 sequence (Q14164 1-716): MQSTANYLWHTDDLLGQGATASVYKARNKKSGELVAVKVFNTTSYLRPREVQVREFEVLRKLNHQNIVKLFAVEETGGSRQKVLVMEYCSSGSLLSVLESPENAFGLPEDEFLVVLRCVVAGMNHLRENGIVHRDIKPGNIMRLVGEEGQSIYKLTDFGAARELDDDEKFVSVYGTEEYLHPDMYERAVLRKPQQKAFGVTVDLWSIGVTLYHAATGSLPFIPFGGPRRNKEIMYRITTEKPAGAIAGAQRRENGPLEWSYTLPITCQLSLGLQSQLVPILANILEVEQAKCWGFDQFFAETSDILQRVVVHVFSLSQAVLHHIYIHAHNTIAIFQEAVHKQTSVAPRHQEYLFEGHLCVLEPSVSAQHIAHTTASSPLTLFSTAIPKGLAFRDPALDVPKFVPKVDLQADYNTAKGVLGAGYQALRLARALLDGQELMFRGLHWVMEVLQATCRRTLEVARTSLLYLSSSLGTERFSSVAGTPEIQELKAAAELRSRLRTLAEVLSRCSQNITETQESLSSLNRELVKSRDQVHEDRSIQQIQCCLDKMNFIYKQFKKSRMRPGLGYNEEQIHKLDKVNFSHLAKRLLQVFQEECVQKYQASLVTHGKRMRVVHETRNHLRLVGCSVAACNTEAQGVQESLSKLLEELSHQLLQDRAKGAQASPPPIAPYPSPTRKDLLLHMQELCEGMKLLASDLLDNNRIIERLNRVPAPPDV
Method: IKKε—Kinase Test (IKKepsilon)
The kinase assay is performed as 384-well flashplate assay.
1 nM IKKε, 800 nM biotinylated IκBα(19-42) peptide (biotin-C6-C6-[…]) and 10 μM ATP (with 0.3 μCi of ^33P-ATP/well) are incubated in a total volume of 50 μl (10 mM MOPS, 10 mM magnesium acetate, 0.1 mM EGTA, 1 mM dithiothreitol, 0.02% of Brij35, 0.1% of BSA, 0.1% of BioStab, pH 7.5) with or without test substance at 30° C. for 120 min. The reaction is stopped using 25 μl of 200 mM EDTA solution, filtered off with suction after 30 min at room temperature, and the wells are washed 3 times with 100 μl of 0.9% NaCl solution. The non-specific proportion of the kinase reaction (blank) is determined using 3 μM EMD 1126352 (BX-795). Radioactivity is measured in the Topcount. IC50 values are calculated using RS1.

PDK1 = molecular target: T2, PDK1 (Homo sapiens, UniProt O15530); experiment: Test for the inhibition of PDK1 (384-well flashplate, 33P-ATP); type: biochemical; conditions: His6-PDK1 3.4 nM, 4 μM ATP, 30° C., 60 min
T2 construct: His6 (N)
T2 sequence (O15530 51-556 limits assumed): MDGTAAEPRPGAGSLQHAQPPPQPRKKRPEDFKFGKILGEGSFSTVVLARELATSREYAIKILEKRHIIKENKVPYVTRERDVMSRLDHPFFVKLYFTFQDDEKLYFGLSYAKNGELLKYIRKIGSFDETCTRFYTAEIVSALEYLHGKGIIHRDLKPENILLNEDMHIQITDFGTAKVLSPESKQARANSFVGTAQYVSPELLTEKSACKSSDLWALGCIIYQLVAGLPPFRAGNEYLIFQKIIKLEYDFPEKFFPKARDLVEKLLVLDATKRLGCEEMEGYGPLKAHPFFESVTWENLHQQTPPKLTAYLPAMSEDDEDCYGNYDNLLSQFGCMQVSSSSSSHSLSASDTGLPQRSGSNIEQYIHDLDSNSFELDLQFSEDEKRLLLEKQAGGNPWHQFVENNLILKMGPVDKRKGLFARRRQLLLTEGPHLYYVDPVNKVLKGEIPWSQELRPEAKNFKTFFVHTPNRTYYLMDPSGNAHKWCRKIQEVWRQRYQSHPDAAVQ
Method: 4.0 Test for the Inhibition of PDK1
The experimental batches are carried out in a flashplate system with 384 wells/microtitration plate.
In each case, the PDK1 sample His6-PDK1(1-50)(3.4 nM), the PDK1 substrate biotin-bA-bA-[…] (400 nM), 4 μM ATP (with 0.2 μCi of ^33P-ATP/well) and the test substance in 50 μl of conventional experimental solution per well are incubated at 30° C. for 60 min. The test substances are employed in corresponding concentrations (if desired in a dilution series). The control is carried out without test substance. The reaction is stopped using standard methods and washed. The activity of the kinase is measured via the incorporated radioactivity in top count. In order to determine the non-specific kinase reaction (blank value), the experimental batches are carried out in the presence of 100 nM staurosporin.
The radioactivity (decompositions per minute) of the blank value (no use of test substance in the presence of staurosporin) is subtracted from all other radioactivity values. The controls (kinase activity without test substance) are set equal to 100 percent and all other radioactivity values (after subtracting the blank value) are expressed set in relation thereto (for example in % of the control).
IC50 values (50% inhibition) are determined with the aid of statistics programmes, such as, for example, RS1.

SMILES | IC50 (IKKε) [µM] | IC50 (PDK1) [µM]
Cn1cc(-c2cnc3[nH]cc(-c4cn(Cc5ccncc5)nn4)c3c2)cn1 [Compound A9, 5-(1-Methyl-1H-pyrazol-4-yl)-3-(1-pyridin-4-ylmethyl-1H-1,2,3-triazol-4-yl)-1H-pyrrolo-[2,3-b]pyridine] | 0.0005 to 1 | 0.0005 to 1
CC(c1ccccc1C(F)(F)F)n1cc(-c2c[nH]c3ncc(-c4cnn(C)c4)cc23)nn1 (stereo not drawn) [Compound A20, 5-(1-Methyl-1H-pyrazol-4-yl)-3-{1-[1-(2-trifluoromethylphenyl)ethyl]-1H-1,2,3-triazol-4-yl}-1H-pyrrolo[2,3-b]pyridine] | 0.0005 to 1 | 0.0005 to 1
Cn1cc(-c2cnc3[nH]cc(-c4cn(Cc5ccc6ncccc6c5)nn4)c3c2)cn1 [Compound A29, 6-{4-[5-(1-Methyl-1H-pyrazol-4-yl)-1H-pyrrolo[2,3-b]pyridin-3-yl]-1,2,3-triazol-1-ylmethyl}quinoline] | 1 to 10 | 0.0005 to 1

Other lines, results leading:

IC50 (IKKε) [µM] | IC50 (PDK1) [µM] | SMILES
0.0005 to 1 | 0.0005 to 1 | Cc1cccc(Cn2cc(-c3c[nH]c4ncc(-c5cnn(C)c5)cc34)nn2)c1 [Compound A7, 3-[1-(3-Methylbenzyl)-1H-1,2,3-triazol-4-yl]-5-(1-methyl-1H-pyrazol-4-yl)-1H-pyrrolo[2,3-b]pyridine]
0.0005 to 1 | 0.0005 to 1 | Cn1cc(-c2cnc3[nH]cc(-c4cn(Cc5ccccc5F)nn4)c3c2)cn1 [Compound A17, 3-[1-(2-Fluorobenzyl)-1H-1,2,3-triazol-4-yl]-5-(1-methyl-1H-pyrazol-4-yl)-1H-pyrrolo-[2,3-b]pyridine]
0.0005 to 1 | 0.0005 to 1 | Cn1cc(-c2cnc3[nH]cc(-c4cn(Cc5cccc(F)c5F)nn4)c3c2)cn1 [Compound A25, 3-[1-(2,3-Difluorobenzyl)-1H-1,2,3-triazol-4-yl]-5-(1-methyl-1H-pyrazol-4-yl)-1H-pyrrolo-[2,3-b]pyridine]

Source: US8541584B2, “3-(1,2,3-triazol-4-yl) pyrrolo [2,3-b] pyridine derivatives” (Merck Patent GmbH, priority 2009, dated 2013)
